Here are results for 15 molecules from PMC12677652, “Procyanidin B3 and Its Derivatives Alleviate Neuronal Injury by Targeting G3BP1 for Ischemic Stroke Therapy” (Advanced Science, 2025).

One series relates to OGD/R‐treated HT22 cells. Kind of series: Neuroprotective effect on OGD/R-treated HT22 cells, cell viability by CCK-8. The format is cell-based. Conditions: for viability at 2 µM / viability at 20 µM: Mus musculus, HT-22, 6 h OGD, 24 h reoxygenation with compound, relative to control cells, mean ± S.D., n = 3. The protocol:
HT22 cells were washed with phosphate buffered saline (PBS), then DMEM sugar‐free medium (Gibco, USA) was added and placed in the anaerobic incubator of 5% CO2, 1% O2, and 37 °C for 6 h. PB3 or other compounds were previously dissolved in DMEM/F‐12 with 10% FBS and 1% penicillin/streptomycin. After undergoing OGD for 6 h, the medium was replaced by DMEM/F‐12 with 10% FBS and 1% penicillin/streptomycin containing PB3 or other compounds and kept in a humidified 5% CO2, 37 °C incubator for 24 h.
The CCK‐8 assay kit (Yeasen, China) was used to assess cell viability. All operations were performed following instructions. HT22 cells were seeded into the 96‐well plate (3000 cells per well). The cells were cultured at 37 °C with 5% CO2 in a humidified incubator overnight. After 6 h of OGD, the medium was replaced by DMEM/F‐12 with 10% FBS and 1% penicillin/streptomycin containing PB3 or other compounds and kept in a humidified 5% CO2, 37 °C incubator for 24 h. Then, the cells were washed with PBS, the medium was replaced with DMEM/F‐12 with 10% FBS and 1% penicillin/streptomycin containing 10% CCK‐8 solution, and incubated for 1 h at 37 °C. The absorbance was assessed by a Synergy H1 multi‐mode microplate reader (BioTek, USA) at 450 nm.

The target in the next series is T1, G3BP1 (Mus musculus, UniProt P97855).
T1 construct: endogenous in cells; host or cells: HT22 cell lysate
T1 sequence (P97855 whole entry): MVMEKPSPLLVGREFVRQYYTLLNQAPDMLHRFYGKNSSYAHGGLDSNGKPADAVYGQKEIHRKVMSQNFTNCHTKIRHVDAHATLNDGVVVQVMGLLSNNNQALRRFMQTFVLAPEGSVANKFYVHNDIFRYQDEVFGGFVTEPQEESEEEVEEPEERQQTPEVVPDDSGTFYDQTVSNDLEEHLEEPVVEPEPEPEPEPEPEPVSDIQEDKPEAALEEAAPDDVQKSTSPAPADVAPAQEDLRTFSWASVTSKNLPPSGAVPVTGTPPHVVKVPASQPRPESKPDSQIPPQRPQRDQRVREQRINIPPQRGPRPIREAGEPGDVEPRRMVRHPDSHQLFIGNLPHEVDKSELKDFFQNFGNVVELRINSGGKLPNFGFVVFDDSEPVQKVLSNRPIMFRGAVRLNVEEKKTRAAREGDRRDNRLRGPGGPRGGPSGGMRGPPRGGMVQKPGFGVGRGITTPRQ
Kind of series: Pull-down analysis with PB3-BP probe in HT22 lysates. The format is binding. The conditions noted are these: 200 µM PB3‐BP, blocked by free PB3. The protocol:
HT22 cells were grown to 90% confluency and harvested by trypsin and resuspended in 1 mL PBS (containing protease inhibitors and 0.1% Triton X‐100). The samples were subjected to three freeze–thaw cycles in liquid nitrogen. Each cell lysate was centrifuged (12000 g for 30 min at 4 °C), and the supernatant was collected. The protein concentrations were determined by a BCA protein assay kit (Thermo Scientific, USA). The lysates were adjusted to 2 mg mL^−1 and treated with 200 µM PB3 or DMSO, labeled with 200 µM of PB3‐BP or DMSO, and then put on ice under UV radiation at 365 nm for 1 h. The labeled proteins were precipitated with chloroform‐methanol. Then the precipitations were resuspended with 1.2% SDS/PBS and combined with 300 µM biotin‐PEG3‐azide, 100 µM tris(benzyltriazolylmethyl)amine, 1 mM tris(2‐carboxyethyl)phosphine hydrochloride, and 1 mM CuSO4 for 1 h. After this reaction, the proteomes were extracted again with chloroform‐methanol. The proteins were solubilized with 1.2% SDS/PBS and diluted 5x with PBS. The solubilized proteins were incubated with streptavidin beads (100 µL of slurry, Thermo Scientific, USA) at room temperature for 3 h with rotation. […] The eluted proteins were analyzed by SDS‐polyacrylamide gel electrophoresis and immunoblotted with anti‐G3BP1 antibody.

The format of series [1] is physicochemical. On the procedure: Furthermore, a small‐molecule procyanidin B3‐benzophenone probe (PB3‐BP, 2, Figure 2G) was synthesized based on a non‐protective condensation strategy (Scheme S1, Supporting Information).^[ [29] ^] The stability of compound 2 is poor, and its structure is determined by 2D‐NMR after acetylation (Figure S4, Supporting Information). […] To identify the specific targeting sites of PB3 on G3BP1, the ultraviolet‐crosslinked complex of PB3‐BP/G3BP1 was digested with trypsin and subjected to LC‐MS/MS analysis.^[ [30] ^] […] To evaluate the affinity between the wild type and four mutants (L105A, R107A, Q134A, D135A) ^[ [34] ^] of the G3BP1 NTF2L domain and PB3, molecular dynamics simulations were performed to analyze each complex system based on docking results.^[ [35] ^]

Take `C#CCN(Cc1ccc(C(=O)c2ccccc2)cc1)C(=O)COc1cc(O)c([C@@H]2c3c(O)cc(O)cc3O[C@H](c3ccc(O)c(O)c3)[C@H]2O)c2c1C[C@H](O)[C@@H](c1ccc(O)c(O)c1)O2` [Compound 2, N‐(4‐Benzoylbenzyl)‐2‐(((2R,2′R,3S,3′S,4S)‐2,2′‐bis(3,4‐dihydroxyphenyl)‐3,3′,5,7,7′‐pentahydroxy‐[4,8′‐bichroman]‐5′‐yl)oxy)‐N‐(prop‐2‐yn‐1‐yl)acetamide]: the neuroprotective activity result in the series with OGD/R‐treated HT22 cells (100 µM, OGD/R‐treated HT22 cells) is given as “retained the neuroprotective activity of PB3”. Moreover, at G3BP1, the “pull-down of G3BP1” value is “pulled down”. In addition, the stability entry in series [1] is given as “poor”.
What is called viability is a per cent measure of how many cells are alive, often set against a control. `Cc1c(O)cc(O)c2c1O[C@H](c1ccc(O)c(O)c1)[C@@H](O)[C@@H]2c1c(O)cc(O)c2c1O[C@H](c1ccc(O)c(O)c1)[C@@H](O)C2` [Compound 6a, 8‐Methyl‐(+)‐Catechin‐(4α,8)‐(+)‐Catechin]: in the series with OGD/R‐treated HT22 cells, the viability at 2 µM was 56.7 ± 2.22% and the viability at 20 µM is 70.2 ± 2.92%.
The matching figures for `CCc1c(O)cc(O)c2c1O[C@H](c1ccc(O)c(O)c1)[C@@H](O)[C@@H]2c1c(O)cc(O)c2c1O[C@H](c1ccc(O)c(O)c1)[C@@H](O)C2` [Compound 6b, 8‐Ethyl‐(+)‐Catechin‐(4α,8)‐(+)‐Catechin]: 62 ± 9.21% and 73.6 ± 4.78%.
For the molecule `CCCc1c(O)cc(O)c2c1O[C@H](c1ccc(O)c(O)c1)[C@@H](O)[C@@H]2c1c(O)cc(O)c2c1O[C@H](c1ccc(O)c(O)c1)[C@@H](O)C2` [Compound 6d, 8‐Propyl‐(+)‐Catechin‐(4α,8)‐(+)‐Catechin], in the series on OGD/R‐treated HT22 cells, the viability at 2 µM was 62.1 ± 3.73% and the viability at 20 µM was 78.8 ± 1.43%.
On to `CC(C)Cc1c(O)cc(O)c2c1O[C@H](c1ccc(O)c(O)c1)[C@@H](O)[C@@H]2c1c(O)cc(O)c2c1O[C@H](c1ccc(O)c(O)c1)[C@@H](O)C2` [Compound 6e, 8‐Isobutyl‐(+)‐Catechin‐(4α,8)‐(+)‐Catechin], for which, in the series with OGD/R‐treated HT22 cells, the viability at 2 µM stood at 58.5 ± 8.12% and the viability at 20 µM is 67 ± 2.7%.
`Oc1ccc([C@H]2Oc3c(-c4ccccc4)c(O)cc(O)c3[C@@H](c3c(O)cc(O)c4c3O[C@H](c3ccc(O)c(O)c3)[C@@H](O)C4)[C@@H]2O)cc1O` [Compound 6f, 8‐Phenyl‐(+)‐Catechin‐(4α,8)‐(+)‐Catechin]: in the series with OGD/R‐treated HT22 cells, the viability at 2 µM was found to be 59.7 ± 7.43% and the viability at 20 µM came to 70.4 ± 7.72%.
Turning to `Oc1ccc([C@H]2Oc3c(-c4ccncc4)c(O)cc(O)c3[C@@H](c3c(O)cc(O)c4c3O[C@H](c3ccc(O)c(O)c3)[C@@H](O)C4)[C@@H]2O)cc1O` [Compound 6g, 8‐(Pyridin‐4‐yl)‐(+)‐Catechin‐(4α,8)‐(+)‐Catechin], in the series on OGD/R‐treated HT22 cells, the viability at 2 µM stood at 55.9 ± 8.56% and the viability at 20 µM is 71.4 ± 1.74%.
The matching figures for `Oc1ccc([C@H]2Oc3c(-c4cccnc4)c(O)cc(O)c3[C@@H](c3c(O)cc(O)c4c3O[C@H](c3ccc(O)c(O)c3)[C@@H](O)C4)[C@@H]2O)cc1O` [Compound 6h, 8‐(Pyridin‐3‐yl)‐(+)‐Catechin‐(4α,8)‐(+)‐Catechin]: 58.8 ± 7.12% and 75.3 ± 4.68%.
The matching figures for `CC(=O)O[C@H]1[C@H](c2c(O)cc(O)c3c2O[C@H](c2ccc(O)c(O)c2)[C@@H](OC(C)=O)C3)c2c(O)cc(O)cc2O[C@@H]1c1ccc(O)c(O)c1` [Compound 8, 3‐O‐Acetyl‐(+)‐Catechin‐(4α,8)‐[3‐O‐Acetyl‐(+)‐Catechin]]: 62 ± 5.58% and 69.3 ± 6.73%.
With `COc1cc(OC)c2c(c1)O[C@H](c1ccc(OC)c(OC)c1)[C@@H](O)[C@@H]2c1c(OC)cc(OC)c2c1O[C@H](c1ccc(OC)c(OC)c1)[C@@H](O)C2` [Compound 9, 5,7,3′,4′‐Tetra‐O‐Methyl‐(+)‐Catechin‐(4α, 8)‐[5,7,3′,4′‐Tetra‐O‐Methyl‐(+)‐Catechin]], in the series with OGD/R‐treated HT22 cells, the viability at 2 µM was determined as 52.6 ± 7.34% and the viability at 20 µM was 66.8 ± 1.89%.
The matching figures for `COc1cc([C@H]2Oc3cc(O)cc(O)c3[C@@H](c3c(O)cc(O)c4c3O[C@H](c3ccc(O)c(O)c3)[C@@H](O)C4)[C@@H]2O)ccc1O` [Compound 13a, 3′‐O‐Methyl‐(+)‐Catechin‐(4α,8)‐(+)‐Catechin]: 59.6 ± 2.82% and 65.5 ± 4.74%.
On to `COc1ccc([C@H]2Oc3cc(O)cc(O)c3[C@@H](c3c(O)cc(O)c4c3O[C@H](c3ccc(O)c(O)c3)[C@@H](O)C4)[C@@H]2O)cc1O` [Compound 13b, 4′‐O‐Methyl‐(+)‐Catechin‐(4α,8)‐(+)‐Catechin], for which, in the series on OGD/R‐treated HT22 cells, the viability at 2 µM came out at 57.5 ± 7.11% and the viability at 20 µM amounted to 70.54 ± 0.41%.
Consider `COc1cc([C@H]2Oc3c(c(O)cc(O)c3[C@@H]3c4c(O)cc(O)cc4O[C@H](c4ccc(O)c(O)c4)[C@H]3O)C[C@@H]2O)ccc1O` [Compound 13c, (+)‐Catechin‐(4α,8)‐[3′‐O‐Methyl‐(+)‐Catechin]], for which, in the series on OGD/R‐treated HT22 cells, the viability at 2 µM was 66.2 ± 10.6% and the viability at 20 µM came to 66.1 ± 2.9%.
The matching figures for `COc1ccc([C@H]2Oc3c(c(O)cc(O)c3[C@@H]3c4c(O)cc(O)cc4O[C@H](c4ccc(O)c(O)c4)[C@H]3O)C[C@@H]2O)cc1O` [Compound 13d, (+)‐Catechin‐(4α,8)‐[4′‐O‐Methyl‐(+)‐Catechin]]: 63 ± 6.27% and 69 ± 8.76%.
For the molecule `CC1=NN(c2ccccc2)C(=O)C1` [EDA, edaravone, reference compound], in the series on OGD/R‐treated HT22 cells, the viability at 2 µM is 60.8 ± 7.4% and the viability at 20 µM worked out at 71.5 ± 9.84%.
